Reference: US10682371B2, “Small molecule conjugates specifically activated in tumor microenvironment for targeting and use thereof” (priority 2014, dated 2020)
Like-named read-outs stand apart in the source and are kept apart here.

Experiments:
[1] = system: Human fibrosarcoma HT-1080 tumor tissue homogenate; format: biochemical; conditions: Human fibrosarcoma HT-1080
How it was run: (§1)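 Protease activation of compounds was measured in acidized tissue homogenates at 37° C, using 1 mg/ml compound per 100 μg homogenate.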

[2] = system: tumor tissue homogenates; format: biochemical
How it was run: as §1

[3] = Solubility / formulation test in solvent 1 and solvent 2; format: physicochemical; conditions: for Concentration achieved, completely dissolved in both solvent 1 and solvent 2: solvent 1 injectable water
[4] = system: Human non-small cell lung cancer A549; assay: Multiple tumor models in nude mice: A549; format: in vivo
Method: 1) Corresponding tumor cells were purchased from American type culture collection (ATCC) and identified according the specification provided by ATCC. Cells were cultivated in DMEM culture solution containing 10% fetal bovine serum at 37° C. and 5% CO2. The cells were passaged for every three days and cells within the 15th passage were used.
2) Production of tumor. 5×10^6 corresponding cells were subcutaneously injected to the back of the nude mice. Mice were randomly grouped after the tumor reached at least 100 mm^3. Then treatment began and the day on which the treatment began was day 1.
(§2) 3) Course of treatment. […] The control group was administered by physiological saline. Animals were administered once weekly for three weeks.
3) Course of treatment. According to the clinical application of A1, A1 was administered in a dose of ⅙ MTD, i.v., 17.6 μmol/kg. The control group was administered by physiological saline. Animals were administered once weekly for three weeks.
3) Course of treatment. According to the clinical application of B1, B1 was administered in a dose of ⅙ MTD, i.v., 17.6 μmol/kg. The control group was administered by physiological saline. Animals were administered once weekly for three weeks.
as §2, §2

[5] = system: 4T1 cells; assay: BALB/C mice model for tumor metastasis (4T1, lung metastases); format: in vivo; conditions: for Inhibitory rate on metastasis / Number of metastasized tumor: IV every three days for 4 times, Paclitaxel 4 mg/kg; for Inhibitory effect on tumor metastasis, in words: compared with parent drug group and control group
How it was run: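 10^6 4T1 cells (DMEM, 10% FBS, within passage 15) injected subcutaneously into the back of BALB/C mice; primary tumor resected at about 1.5 cm, then dosing began. Drugs given IV once every three days, 4 times; saline controls. Lungs removed day 27, Bouin's-stained, metastases counted under anatomical microscope.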

[6] = system: Human prostate cancer PC-3 cells / Panc-1 cells; assay: Tumor treatment in nude mice (PC-3 cells purchased, Panc-1 cells injected; Examples 22, 32, 42); format: in vivo; conditions: for Size of tumor (mm^3) Day 10 / inhibitory rate on tumor Day 10 / Size of tumor (mm^3) Day 24 / inhibitory rate on tumor Day 24: nude mice, IV once weekly for four weeks, Paclitaxel 8 mg/kg; for Inhibition on tumor growth, in words: compared with parent drug group (same molar concentration) and control group
How it was run: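 Nude mice bearing subcutaneous Panc-1 xenografts (5×10^6 cells on the back) were randomized once tumors reached at least 100 mm^3. Drugs were given intravenously once weekly for four weeks, with saline controls. PC-3 cells were grown in DMEM/10% FBS and used within passage 15.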

[7] = system: BALB/C mice; assay: Maximum tolerated dose (MTD) / acute toxicity by single intravenous injection; conditions: for Behaviors and death observed: BALB/C mice receiving 90 mg/kg injection; for MTD (maximum tolerated dose): intravenous injection, one time
[8] = Table 28, BALB/C mice, 4T1, lung metastases day 27, A1-A4 12 mg/kg
[9] = single intravenous injection, 125 mg/kg, 10 BALB/C mice per group
[10] = single intravenous injection, 150 mg/kg, 10 BALB/C mice per group
[11] = single intravenous injection, 175 mg/kg, 10 BALB/C mice per group
[12] = single intravenous injection, 200 mg/kg, 10 BALB/C mice per group
[13] = 4T1, BALB/C mice, lung, day 27, S1′-S4′ 12 mg/kg

SMILES: COCCOCC(=O)NCCCC[C@H](NC(=O)COCCOC)C(=O)N[C@H](C)C(=O)N[C@H](C)C(=O)N[C@H](CC(N)=O)C(=O)Nc1ccc(COC(=O)OC(C(=O)OC2C[C@@]3(O)[C@@H](OC(=O)c4ccccc4)[C@H]4[C@](C)(C(=O)[C@H](OC(C)=O)C(=C2C)C3(C)C)[C@@H](O)CC2OC[C@]24OC(C)=O)[C@@H](NC(=O)c2ccccc2)c2ccccc2)cc1 (stereo partly shown) [Compound A1]
- Activation ratio (%) in homogenates from different tumor tissues ([1]; 1 mg/ml, 100 μg acidized homogenate pH6.0, Paclitaxel release by HPLC): 77.7%
- Activation efficiency by tumor tissue, in words [2]: highest activation efficiency among the screened compounds
- solubility in Solvent 1 ([3]; solvent 1 (injectable water), Table 22, Paclitaxel series): insoluble
- Concentration achieved, completely dissolved in both solvent 1 and solvent 2 ([3]; solvent 2 45% alcohol, 55% injectable water): 10000 µg/mL
- solubility in Solvent 2 ([3]; solvent 2 (45% alcohol, 55% injectable water), Table 22, Paclitaxel series): soluble
- Solubility in water, in words ([3]; water): can directly dissolve in water
- inhibitory rate on tumor (Day 26) ([4]; Table 29, i.v. 17.6 μmol/kg once weekly for three weeks): 95.3%
- Inhibitory rate on metastasis [5, 8]: 97.9%
- Number of metastasized tumor [5, 8]: 3 ± 4
- Inhibitory effect on tumor metastasis, in words [5]: greatly improved
- Size of tumor (mm^3) Day 10 ([6]; Table 26, A1-A4 24 mg/kg): 85.16 ± 58.4 mm^3
- inhibitory rate on tumor Day 10 ([6]; Table 26, A1-A4 24 mg/kg): 71.1%
- Size of tumor (mm^3) Day 24 ([6]; Table 26, A1-A4 24 mg/kg): 89.78 ± 63.7 mm^3
- inhibitory rate on tumor Day 24 ([6]; Table 26, A1-A4 24 mg/kg): 76.4%
- Inhibition on tumor growth, in words [6]: greatly improved
- Behaviors and death observed [7]: no pilo-erection, hair tousle and lackluster, lethargy, stoop, irritable reaction and death
- MTD (maximum tolerated dose) ([7]; BALB/C mice): about 90 mg/kg
- Mortality rate (%) [7, 9]: 0%
- Number of dead animal [7, 9]: 0
- Mortality rate (%) [7, 10]: 0%
- Number of dead animal [7, 10]: 0
- Mortality rate (%) [7, 11]: 0%
- Number of dead animal [7, 11]: 0
- Mortality rate (%) [7, 12]: 0%
- Number of dead animal [7, 12]: 0

SMILES: COCCOCC(=O)N[C@H](C)C(=O)N[C@H](C)C(=O)N[C@H](CC(N)=O)C(=O)Nc1ccc(COC(=O)OC(C(=O)OC2C[C@@]3(O)C(OC(=O)c4ccccc4)[C@@H]4C5(OC(C)=O)COC5C[C@H](O)[C@@]4(C)C(=O)[C@H](OC(C)=O)C(=C2C)C3(C)C)[C@@H](NC(=O)c2ccccc2)c2ccccc2)cc1 (stereo in doubt) [S1′, 2-(2-methoxyethoxy) acetylamino-L-Ala-L-Ala-L-Asn-p-amino-benzyl-paclitaxel]
- Activation ratio (%) in homogenates from different tumor tissues ([1]; 100 μg acidized homogenate pH6.0, 1 mg/ml, 37°): 74.7%
- Activation efficiency by tumor tissue, in words [2]: highest activation efficiency among the screened compounds
- solubility in Solvent 1 ([3]; Solvent 1 injectable water, dissolution concentration 10 mg/ml): soluble
- solubility in Solvent 2 ([3]; Solvent 2: 50% injectable water, 45%-49% propanediol, 1%-5% Tween80, dissolution concentration 10 mg/ml): soluble
- Concentration achieved, completely dissolved in both solvent 1 and solvent 2 ([3]; solvent 2 50% injectable water, 42%-49% propanediol, 1%-8% Tween80): 10000 µg/mL
- inhibitory rate on tumor (Day 26) ([4]; S1′ i.v. 17.6 μmol/kg once weekly for three weeks): 94.6%
- Inhibitory rate on metastasis [5, 13]: 99.2%
- Number of metastasized tumor [5, 13]: 2 ± 3
- Inhibitory effect on tumor metastasis, in words [5]: greatly improved
- Inhibition on tumor growth, in words [6]: greatly improved
- Size of tumor (mm^3) Day 10 ([6]; S1′-S4′ 24 mg/kg): 76.42 ± 14.96 mm^3
- inhibitory rate on tumor Day 10 ([6]; S1′-S4′ 24 mg/kg): 35.7%
- Size of tumor (mm^3) Day 24 ([6]; S1′-S4′ 24 mg/kg): 84.62 ± 45.94 mm^3
- inhibitory rate on tumor Day 24 ([6]; S1′-S4′ 24 mg/kg): 66.1%
- Behaviors and death observed [7]: no pilo-erection, hair tousle and lackluster, lethargy, stoop, irritable reaction and death
- MTD (maximum tolerated dose) ([7]; BALB/C mice): about 90 mg/kg
- Mortality rate (%) ([7]; BALB/C mice, single iv, 125 mg/kg): 0%
- Number of dead animal ([7]; BALB/C mice, single iv, 125 mg/kg, 10 animals): 0
- Mortality rate (%) ([7]; BALB/C mice, single iv, 150 mg/kg): 0%
- Number of dead animal ([7]; BALB/C mice, single iv, 150 mg/kg, 10 animals): 0
- Mortality rate (%) ([7]; BALB/C mice, single iv, 175 mg/kg): 0%
- Number of dead animal ([7]; BALB/C mice, single iv, 175 mg/kg, 10 animals): 0
- Mortality rate (%) ([7]; BALB/C mice, single iv, 200 mg/kg): 10%
- Number of dead animal ([7]; BALB/C mice, single iv, 200 mg/kg, 10 animals): 1
